Entries after “also recorded” stand apart in the source; their conditions may differ.
Target: bacterial AGPPase (Escherichia coli, UniProt Q93K97, L2V/N6S)
Format: biochemical
Settings: not given

bacterial AGPPase, sequence (Q93K97 whole entry L2V/N6S, looked up): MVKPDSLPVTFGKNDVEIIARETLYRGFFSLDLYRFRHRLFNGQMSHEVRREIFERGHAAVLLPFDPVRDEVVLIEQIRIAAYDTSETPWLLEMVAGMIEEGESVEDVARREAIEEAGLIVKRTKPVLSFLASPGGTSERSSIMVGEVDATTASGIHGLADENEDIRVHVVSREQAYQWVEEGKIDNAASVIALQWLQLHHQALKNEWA

Q: Which “inhibition of AGPPase” value does the source give for `[O]=[Mo](=[O])([O-])[O-]` [molybdate] here?
A: strongly inhibited; also recorded: Inhibited strongly

Q: With `Nc1ncnc2c1ncn2[C@@H]1O[C@H](COP(=O)(O)OP(=O)(O)OP(=O)(O)O)[C@@H](O)[C@H]1O` [ATP] as the compound, how does the “inhibition of AGPPase” value read?
A: Inhibited

Q: `N[C@@H](CS)C(=O)O` [reduced cysteine] was tested. Which “AGPPase activity affected by reducing and chelating agents” value did it give?
A: adversely affected

Q: `O=P(O)(O)O` [orthophosphate] was tested. Which “inhibition of AGPPase” value did it give?
A: not

Q: `O=C(O)[C@H](O)COP(=O)(O)O` [3-phosphoglycerate] was tested. Which “inhibition of AGPPase” value did it give?
A: Inhibited

Q: Which “requirement for optimum functioning of AGPPase” value does the source give for `[Mg+2]` [magnesium] here?
A: requires

Q: How did the “inhibition of AGPPase” value turn out when `O=P(O)(O)OP(=O)(O)O` [inorganic pyrophosphate] was run?
A: Inhibited

Q: `N[C@@H](CCC(=O)O)C(=O)O` [glutamate] was tested. Which “AGPPase activity affected by reducing and chelating agents” value did it give?
A: adversely affected

Q: For `O=C(O)CN(CCN(CC(=O)O)CC(=O)O)CC(=O)O` [EDTA], which “AGPPase activity affected by reducing and chelating agents” value is on record?
A: adversely affected

Q: `N[C@@H](CCC(=O)N[C@@H](CS)C(=O)NCC(=O)O)C(=O)O` [reduced glutathione] was tested. Which “AGPPase activity affected by reducing and chelating agents” value did it give?
A: adversely affected

Q: `Nc1ncnc2c1ncn2[C@@H]1O[C@H](COP(=O)(O)OP(=O)(O)O)[C@@H](O)[C@H]1O` [ADP] was tested. Which “inhibition of AGPPase” value did it give?
A: Inhibited

Q: Which “AGPPase activity affected by reducing and chelating agents” value does the source give for `OCCS` [β-mercaptoethanol] here?
A: adversely affected

Q: `Nc1ncnc2c1ncn2[C@@H]1O[C@H](COP(=O)(O)O)[C@@H](O)[C@H]1O` [AMP] was tested. Which “inhibition of AGPPase” value did it give?
A: Inhibited

Same assay, conditions: 37° C., Tris-HCl 50 mM pH 7.5, 5 mM MgCl2

Q: With `Nc1ncnc2c1ncn2[C@@H]1O[C@@H]2COP(=O)(O)O[C@H]2[C@H]1O` [cyclic AMP] as the compound, how does the “hydrolysis / recognition as substrate by AGPPase” value (“hydrolysis / recognition” below) read?
A: Nor does it hydrolyze

Same assay, conditions: pH 7.5

Q: With `O=[N+]([O-])c1ccc(OP(=O)(O)Oc2ccc([N+](=O)[O-])cc2)cc1` [bis-paranitrophenyl-phosphate] as the compound, how does the “hydrolysis / recognition” value read?
A: does not hydrolyze

Q: For `O=C(O)[C@H]1O[C@H](OP(=O)(O)OP(=O)(O)OC[C@H]2O[C@@H](n3ccc(=O)[nH]c3=O)[C@H](O)[C@@H]2O)[C@H](O)[C@@H](O)[C@@H]1O` [UDPglucuronic], which “hydrolysis / recognition” value is on record?
A: does not recognize

Q: For `Nc1nc2c(ncn2[C@@H]2O[C@H](COP(=O)(O)OP(=O)(O)O[C@H]3O[C@H](CO)[C@@H](O)[C@H](O)[C@@H]3O)[C@@H](O)[C@H]2O)c(=O)[nH]1` [GDPmannose], which “hydrolysis / recognition” value is on record?
A: does not recognize

Q: With `O=P(O)(O)O[C@H]1O[C@H](CO)[C@@H](O)[C@H](O)[C@H]1O` [G1P, glucose-1-phosphate] as the compound, how does the “hydrolysis / recognition” value read?
A: does not hydrolyze

Q: `O=C[C@H](O)[C@@H](O)[C@H](O)[C@H](O)COP(=O)(O)O` [G6P, glucose-6-phosphate] was tested. Which “hydrolysis / recognition” value did it give?
A: does not hydrolyze

Q: `O=C(O)[C@H](O)COP(=O)(O)O` [3-phosphoglycerate] was tested. Which “hydrolysis / recognition” value did it give?
A: does not hydrolyze

Q: Which “hydrolysis / recognition” value does the source give for `Nc1ncnc2c1ncn2[C@@H]1O[C@H](COP(=O)(O)OP(=O)(O)OC[C@H]2OC(O)[C@H](O)[C@@H]2O)[C@@H](O)[C@H]1O` (stereo partly drawn) [ADPribose] here?
A: recognizes; also recorded: hydrolyzes

Q: Which “hydrolysis / recognition” value does the source give for `Nc1ncnc2c1ncn2[C@@H]1O[C@H](COP(=O)(O)OP(=O)(O)O[C@H]2O[C@H](CO)[C@@H](O)[C@H](O)[C@H]2O)[C@@H](O)[C@H]1O` [ADPG, ADPglucose] here?
A: catalyzes the hydrolysis

Q: With `Nc1ncnc2c1ncn2[C@@H]1O[C@H](COP(=O)(O)OP(=O)(O)O[C@H]2O[C@H](CO)[C@@H](O)[C@H](O)[C@@H]2O)[C@@H](O)[C@H]1O` [ADPmannose] as the compound, how does the “hydrolysis / recognition” value read?
A: recognizes; also recorded: hydrolyzes

Q: Which “hydrolysis / recognition” value does the source give for `Nc1ncnc2c1ncn2[C@@H]1O[C@H](COP(=O)(O)O)[C@@H](O)[C@H]1O` [AMP] here?
A: does not hydrolyze
